Measurements: US8846739B2, “TGR5 agonists” (Exelixis Patent Company LLC, priority 2009, dated 2014)

Legend:
[1] = biological target: T1, h-TGR5 (Homo sapiens, UniProt Q8TDU6); test: TGR5 cAMP Assay using Cisbio cAMP Dynamic 2 htrf assay kit; assay type: cell-based; details: hTGR5CRE-luc HEK 293 cells
T1 sequence (Q8TDU6 1-330): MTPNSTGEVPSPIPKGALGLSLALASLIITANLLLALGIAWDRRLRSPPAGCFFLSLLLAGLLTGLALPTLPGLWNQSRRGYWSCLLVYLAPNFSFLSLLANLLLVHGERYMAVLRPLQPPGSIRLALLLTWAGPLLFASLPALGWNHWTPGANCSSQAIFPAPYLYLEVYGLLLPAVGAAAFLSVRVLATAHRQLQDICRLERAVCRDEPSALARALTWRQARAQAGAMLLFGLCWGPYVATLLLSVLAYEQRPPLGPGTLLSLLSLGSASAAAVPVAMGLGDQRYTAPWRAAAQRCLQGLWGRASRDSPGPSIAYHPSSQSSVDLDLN

[2] = biological target: T2, human TGR5 (h-TGR5) (Homo sapiens, UniProt Q8TDU6); test: TGR5/CRE-Luciferase Assay; assay type: cell-based; details: HEK 293 hTGR5/CRE-Luc cells, 6 hours incubation, read-out: CRE-Luc Agonist (EC50)
T2 sequence (Q8TDU6 1-330): T1 sequence (Q8TDU6 1-330)
Summary of the method: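 HEK 293 CRE-Luciferase cells stably expressing the receptor, plated in DMEM 18-20 h before assay, then exposed to serially diluted compounds (DMEM with 5% DMSO) for 6 h. Luciferase read-out after lysis; EC50 from dose-response.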

SMILES | EC50 [1] | EC50 [2]
COc1cc(C(C)(C)c2cnc(SCc3c(F)cc(S(=O)(=O)N(C)[C@@H](CCCCC[N+](C)(C)C)C(=O)O)cc3Cl)n2-c2ccc(F)cc2)ccc1Cl [Compound 17l, (S)-6-carboxy-6-(3-chloro-4-((5-(2-(4-chloro-3-methoxyphenyl)propan-2-yl)-1-(4-fluorophenyl)-1H-imidazol-2-ylthio)methyl)-5-fluoro-N-methylphenylsulfonamido)-N,N,N-trimethylhexan-1-aminium 2,2,2-trifluoroacetate] | < 100 nM | < 100 nM
COc1cc(C(C)(C)c2cnc(CCc3c(F)cc(S(=O)(=O)N(CCC[N+](C)(C)C)[C@H](C)C(=O)O)cc3Cl)n2-c2ccc(F)cc2)ccc1Cl [Compound 17m, (R)-3-(N-(1-carboxyethyl)-3-chloro-4-(2-(5-(2-(4-chloro-3-methoxyphenyl)propan-2-yl)-1-(4-fluorophenyl)-1H-imidazol-2-yl)ethyl)-5-fluorophenylsulfonamido)-N,N,N-trimethylpropan-1-aminium 2,2,2-trifluoroacetate] | < 100 nM | < 100 nM
COc1cc(C(C)(C)c2cnc(CCc3c(F)cc(S(=O)(=O)N[C@@H](CCCC[N+](C)(C)C)C(=O)O)cc3Cl)n2-c2ccc(F)cc2)ccc1Cl [Compound 17n, (S)-5-carboxy-5-(3-chloro-4-(2-(5-(2-(4-chloro-3-methoxyphenyl)propan-2-yl)-1-(4-fluorophenyl)-1H-imidazol-2-yl)ethyl)-5-fluorophenylsulfonamido)-N,N,N-trimethylpentan-1-aminium 2,2,2-trifluoroacetate] | < 100 nM | < 100 nM
COc1cc(C(C)(C)c2cnc(CCc3c(F)cc(S(=O)(=O)N(C)[C@@H](CCCC[N+](C)(C)C)C(=O)O)cc3Cl)n2-c2ccc(F)cc2)ccc1Cl [Compound 17o, (S)-5-carboxy-5-(3-chloro-4-(2-(5-(2-(4-chloro-3-methoxyphenyl)propan-2-yl)-1-(4-fluorophenyl)-1H-imidazol-2-yl)ethyl)-5-fluoro-N-methylphenylsulfonamido)-N,N,N-trimethylpentan-1-aminium 2,2,2-trifluoroacetate] | < 100 nM | < 100 nM
COc1cc(C(C)(C)c2cnc(SCc3c(F)cc(C#CC[N+](C)(C)C)cc3F)n2-c2ccc(F)cc2)ccc1Cl [Compound 18, 3-(4-((5-(2-(4-Chloro-3-methoxyphenyl)propan-2-yl)-1-(4-fluorophenyl)-1H-imidazol-2-ylthio)methyl)-3,5-difluorophenyl)-N,N,N-trimethylprop-2-yn-1-aminium 4-methylbenzenesulfonate] | < 100 nM | < 100 nM
CC[N+](CC)(CC)CC#Cc1cc(F)c(CSc2ncc(C(C)(C)c3ccc(Cl)c(OC)c3)n2-c2ccc(F)cc2)c(F)c1 [Compound 18a, 3-(4-((-5-(2-(4-chloro-3-methoxyphenyl)propan-2-yl)-1-(4-fluorophenyl)-1H-imidazol-2-ylthio)methyl)-3,5-difluorophenyl)-N,N,N-triethylprop-2-yn-1-aminium chloride] | < 100 nM | < 100 nM
COc1cc(C(C)(C)c2cnc(SCc3c(F)cc(CCC[N+]45CCN(CC4)CC5)cc3F)n2-c2ccc(F)cc2)ccc1Cl [Compound 19, 1-(3-(4-((5-(2-(4-chloro-3-methoxyphenyl)propan-2-yl)-1-(4-fluorophenyl)-1H-imidazol-2-ylthio)methyl)-3,5-difluorophenyl)propyl)-4-aza-1-azoniabicyclo[2.2.2.2]octane 2,2,2-trifluoroacetate] | < 100 nM | < 100 nM
COc1cc(C(C)(C)c2cnc(SCc3c(F)cc(CCC[N+](C)(C)C)cc3F)n2-c2ccc(F)cc2)ccc1Cl [Compound 19a, 3-(4-((5-(2-(4-chloro-3-methoxyphenyl)propan-2-yl)-1-(4-fluorophenyl)-1H-imidazol-2-ylthio)methyl)-3,5-difluorophenyl)-N,N,N-trimethylpropan-1-aminium 2,2,2-trifluoroacetate] | < 100 nM | < 100 nM
COc1cc(-n2c(C(C)(C)c3ccc(F)c(Cl)c3)cnc2SCc2c(F)cc(CCC[N+](C)(C)C)cc2F)ccc1F [Compound 19b, 3-(4-((5-(2-(3-chloro-4-fluorophenyl)propan-2-yl)-1-(4-fluoro-3-methoxyphenyl)-1H-imidazol-2-ylthio)methyl)-3,5-difluorophenyl)-N,N,N-trimethylpropan-1-aminium 2,2,2-trifluoroacetate] | < 100 nM | < 100 nM
COc1ccc(C(C)(C)c2cnc(SCc3c(F)cc(CCC[N+](C)(C)C)cc3F)n2-c2ccc(F)cc2)cc1Cl [Compound 19c, 3-(4-((5-(2-(3-chloro-4-methoxyphenyl)propan-2-yl)-1-(4-fluorophenyl)-1H-imidazol-2-ylthio)methyl)-3,5-difluorophenyl)-N,N,N-trimethylpropan-1-aminium 2,2,2-trifluoroacetate] | < 100 nM | < 100 nM
COc1cc(C(C)(C)c2cnc(SCc3c(F)cc(CCC[N+](C)(C)C)cc3Cl)n2-c2ccc(F)cc2)ccc1Cl [Compound 19d, 3-(3-chloro-4-((5-(2-(4-chloro-3-methoxyphenyl)propan-2-yl)-1-(4-fluorophenyl)-1H-imidazol-2-ylthio)methyl)-5-fluorophenyl)-N,N,N-trimethylpropan-1-aminium 2,2,2-trifluoroacetate] | < 100 nM | < 100 nM
COc1cc(C(C)(C)c2cnc(SCc3c(F)cc(CCCC[N+](C)(C)C)cc3F)n2-c2ccc(F)cc2)ccc1Cl [Compound 19e, 4-(4-((5-(2-(4-chloro-3-methoxyphenyl)propan-2-yl)-1-(4-fluorophenyl)-1H-imidazol-2-ylthio)methyl)-3,5-difluorophenyl)-N,N,N-trimethylbutan-1-aminium 2,2,2-trifluoroacetate] | < 100 nM | < 100 nM

Further lines, results first:

EC50 [1] | EC50 [2] | SMILES
< 100 nM | < 100 nM | COc1cc(C(C)(C)c2cnc(SCc3c(F)cc(S(=O)(=O)N(C)[C@@H](CCCC[N+](C)(C)C)C(=O)O)cc3Cl)n2-c2ccc(F)cc2)ccc1Cl [Compound 17f, (S)-5-carboxy-5-(3-chloro-4-((5-(2-(4-chloro-3-methoxyphenyl)propan-2-yl)-1-(4-fluorophenyl)-1H-imidazol-2-ylthio)methyl)-5-fluoro-N-methylphenylsulfonamido)-N,N,N-trimethylpentan-1-aminium 2,2,2-trifluoroacetate]
< 100 nM | < 100 nM | COc1cc(C(C)(C)c2cnc(SCc3c(F)cc(S(=O)(=O)N(C)[C@@H](CCCC[N+](C)(C)C)C(=O)O)cc3F)n2-c2ccc(F)cc2)ccc1Cl [Compound 17g, (S)-5-carboxy-5-(4-((5-(2-(4-chloro-3-methoxyphenyl)propan-2-yl)-1-(4-fluorophenyl)-1H-imidazol-2-ylthio)methyl)-3,5-difluoro-N-methylphenylsulfonamido)-N,N,N-trimethylpentan-1-aminium 2,2,2-trifluoroacetate]
< 100 nM | < 100 nM | CN([C@@H](CCCC[N+](C)(C)C)C(=O)O)S(=O)(=O)c1cc(F)c(CSc2ncc(C(C)(C)c3ccc(Cl)c(Cl)c3)n2-c2ccc(F)cc2)c(Cl)c1 [Compound 17h, (S)-5-carboxy-5-(3-chloro-4-((5-(2-(3,4-dichlorophenyl)propan-2-yl)-1-(4-fluorophenyl)-1H-imidazol-2-ylthio)methyl)-5-fluoro-N-methylphenylsulfonamido)-N,N,N-trimethylpentan-1-aminium 2,2,2-trifluoroacetate]
< 100 nM | < 100 nM | COc1cc(C(C)(C)c2cnc(SCc3c(F)cc(S(=O)(=O)N[C@H](CCCC[N+](C)(C)C)C(=O)O)cc3Cl)n2-c2ccc(F)cc2)ccc1Cl [Compound 17i, (R)-5-carboxy-5-(3-chloro-4-((5-(2-(4-chloro-3-methoxyphenyl)propan-2-yl)-1-(4-fluorophenyl)-1H-imidazol-2-ylthio)methyl)-5-fluorophenylsulfonamido)-N,N,N-trimethylpentan-1-aminium 2,2,2-trifluoroacetate]
< 100 nM | < 100 nM | COc1cc(C(C)(C)c2cnc(SCc3c(F)cc(S(=O)(=O)N(C)[C@H](CCCC[N+](C)(C)C)C(=O)O)cc3Cl)n2-c2ccc(F)cc2)ccc1Cl [Compound 17j, (R)-5-carboxy-5-(3-chloro-4-((5-(2-(4-chloro-3-methoxyphenyl)propan-2-yl)-1-(4-fluorophenyl)-1H-imidazol-2-ylthio)methyl)-5-fluoro-N-methylphenylsulfonamido)-N,N,N-trimethylpentan-1-aminium 2,2,2-trifluoroacetate]
< 100 nM | < 100 nM | COc1cc(C(C)(C)c2cnc(SCc3c(F)cc(S(=O)(=O)N(C)[C@H](CCCC[N+](C)(C)C)C(=O)O)cc3F)n2-c2ccc(F)cc2)ccc1Cl [Compound 17k, (R)-5-carboxy-5-(4-((5-(2-(4-chloro-3-methoxyphenyl)propan-2-yl)-1-(4-fluoro-phenyl)-1H-imidazol-2-ylthio)methyl)-3,5-difluoro-N-methylphenylsulfonamido)-N,N,N-trimethylpentan-1-aminium 2,2,2-trifluoroacetate]
